For this test, the target named is α-synuclein (E46K α-syn) (Homo sapiens, UniProt P37840, E46K). As to the kind of experiment: Thioflavin T fibrillization assay with purified E46K α-syn. In kind it is biochemical.

The term IC50 denotes the concentration that inhibits the measured activity by half. The low end stands for higher potency, the high end for lower potency. `O=c1cc(-c2ccccc2)oc2cc(O)c(O)c(O)c12` [Baicalein] gave a concentration for half-maximal inhibition (IC50) of approximately 10 µM.

The values above are taken from publication PMC2910156 (Journal of neurochemistry, 2010).
